Results as given in patent US20170107229A1, “SUBSTITUTED TETRAHYDROPYRIDOTHIENOPYRIMIDINES” (BAYER PHARMA AKTIENGESELLSCHAFT, priority 2014, published 2017).

Biological target: T1, human full-length MKNK1 (Homo sapiens, UniProt Q9BUB5, T385D)
T1 construct: GST (N); purchased Carna Biosciences 02-145; host or cells: insect cells (baculovirus expression system)
Experiment: MKNK1 kinase high ATP assay (TR-FRET)
Assay type: biochemical
Settings: high ATP (2 mM final), 15 min preincubation with enzyme, GST-MKNK1 (T344D)
Description: MKNK1-inhibitory activity at high ATP of compounds of the present invention after their preincubation with MKNK1 was quantified employing the TR-FRET-based MKNK1 high ATP assay as described in the following paragraphs.
A recombinant fusion protein of Glutathione-S-Transferase (GST, N-terminally) and human full-length MKNK1 (amino acids 1-424 and T344D of accession number BAA 19885.1), expressed in insect cells using baculovirus expression system and purified via glutathione sepharose affinity chromatography, was purchased from Carna Biosciences (product no 02-145) and used as enzyme. As substrate for the kinase reaction the biotinylated peptide biotin-Ahx-IKKRKLTRRKSLKG (C-terminus in amide form) was used, which can be purchased e.g. from the company Biosyntan (Berlin-Buch, Germany).
For the assay 50 nL of a 100fold concentrated solution of the test compound in DMSO was pipetted into a black low volume 384well microtiter plate (Greiner Bio-One, Frickenhausen, Germany), 2 μL of a solution of MKNK1 in aqueous assay buffer [50 mM HEPES pH 7.5, 5 mM MgCl2, 1.0 mM dithiothreitol, 0.005% (v/v) Nonidet-P40 (Sigma)] was added and the mixture was incubated for 15 min at 22° C. to allow pre-binding of the test compounds to the enzyme before the start of the kinase reaction. Then the kinase reaction was started by the addition of 3 μL of a solution of adenosine-tri-phosphate (ATP, 3.3 mM=>final conc. in the 5 μL assay volume is 2 mM) and substrate (0.1 μM=>final conc. in the 5 μL assay volume is 0.06 μM) in assay buffer and the resulting mixture was incubated for a reaction time of 30 min at 22° C. The concentration of MKNK1 was adjusted depending of the activity of the enzyme lot and was chosen appropriate to have the assay in the linear range, typical concentrations were in the range of 0.003 μg/mL. The reaction was stopped by the addition of 5 μL of a solution of TR-FRET detection reagents (5 nM streptavidine-XL665 [Cisbio Bioassays, Codolet, France] and 1 nM anti-ribosomal protein S6 (pSer236)-antibody from Invitrogen [#44921G] and 1 nM LANCE EU-W1024 labeled ProteinG [Perkin-Elmer, product no. AD0071]) in an aqueous EDTA-solution (100 mM EDTA, 0.1% (w/v) bovine serum albumin in 50 mM HEPES pH 7.5).
The resulting mixture was incubated for 1 h at 22° C. to allow the formation of complex between the phosphorylated biotinylated peptide and the detection reagents. Subsequently the amount of phosphorylated substrate was evaluated by measurement of the resonance energy transfer from the Eu-chelate to the streptavidine-XL. Therefore, the fluorescence emissions at 620 nm and 665 nm after excitation at 350 nm were measured in a TR-FRET reader, e.g. a Rubystar (BMG Labtechnologies, Offenburg, Germany) or a Viewlux (Perkin-Elmer). The ratio of the emissions at 665 nm and at […] was taken as the measure for the amount of phosphorylated substrate. The data were normalised (enzyme reaction without inhibitor=0% inhibition, all other assay components but no enzyme=100% inhibition).

T1 sequence (Q9BUB5 1-424 isoform Q9BUB5-2 T344D): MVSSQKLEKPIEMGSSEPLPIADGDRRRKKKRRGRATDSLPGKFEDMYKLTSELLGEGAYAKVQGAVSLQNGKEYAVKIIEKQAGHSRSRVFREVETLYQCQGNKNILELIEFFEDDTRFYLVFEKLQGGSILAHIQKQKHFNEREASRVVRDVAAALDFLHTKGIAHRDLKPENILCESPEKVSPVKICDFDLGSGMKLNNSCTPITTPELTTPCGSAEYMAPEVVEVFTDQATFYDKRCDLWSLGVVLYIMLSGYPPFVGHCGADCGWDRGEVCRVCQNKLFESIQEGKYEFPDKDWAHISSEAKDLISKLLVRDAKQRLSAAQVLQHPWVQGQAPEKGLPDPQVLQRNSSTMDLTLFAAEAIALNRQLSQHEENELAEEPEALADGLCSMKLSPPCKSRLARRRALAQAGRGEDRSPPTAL

Row | SMILES | IC50 [nM]
1 | O=C(N1CCOCC1)N1CCc2c(sc3ncnc(Nc4ccc5[nH]c(=O)sc5c4)c23)C1 [Example 41, 6-{[7-(Morpholin-4-ylcarbonyl)-5,6,7,8-tetrahydropyrido[4′,3′:4,5]thieno[2,3-d]pyrimidin-4-yl]amino}-1,3-benzothiazol-2(3H)-one] | 216
2 | COc1cc2[nH]ncc2cc1Nc1ncnc2sc3c(c12)CCN(C(=O)N1CCOCC1)C3 [Example 42, {4-[(6-Methoxy-1H-indazol-5-yl)amino]-5,8-dihydropyrido[4′,3′:4,5]thieno[2,3-d]pyrimidin-7(6H)-yl}(morpholin-4-yl)methanone] | 22
3 | O=C(N1CCOCC1)N1CCc2c(sc3ncnc(Nc4ccc5[nH]ncc5c4)c23)C1 [Example 43, [4-(1H-Indazol-5-ylamino)-5,8-dihydropyrido[4′,3′:4,5]thieno[2,3-d]pyrimidin-7(6H)-yl](morpholin-4-yl)methanone] | 48
4 | O=C(N1CCOCC1)N1CCc2c(sc3ncnc(Nc4cnc5[nH]ncc5c4)c23)C1 [Example 44, Morpholin-4-yl[4-(1H-pyrazolo[3,4-b]pyridin-5-ylamino)-5,8-dihydropyrido[4′,3′:4,5]thieno[2,3-d]pyrimidin-7(6H)-yl]methanone] | 118
5 | COc1nc2[nH]ncc2cc1Nc1ncnc2sc3c(c12)CCNC3 [Example 45, N-(6-Methoxy-1H-pyrazolo[3,4-b]pyridin-5-yl)-5,6,7,8-tetrahydropyrido[4′,3′:4,5]thieno[2,3-d]pyrimidin-4-amine] | 87
6 | CSc1cc2[nH]ncc2cc1Nc1ncnc2sc3c(c12)CCN(C(=O)N(C)C)C3 [Example 46, N,N-Dimethyl-4-{[6-(methylsulfanyl)-1H-indazol-5-yl]amino}-5,8-dihydropyrido[4′,3′:4,5]thieno[2,3-d]pyrimidine-7(6H)-carboxamide] | 87
7 | CSc1cc2[nH]ncc2cc1Nc1ncnc2sc3c(c12)CCN(C(=O)N1CCOCC1)C3 [Example 47, [4-{[6-(Methylsulfanyl)-1H-indazol-5-yl]amino}-5,8-dihydropyrido[4′,3′:4,5]thieno[2,3-d]pyrimidin-7(6H)-yl](morpholin-4-yl)methanone] | 61
8 | CSc1cc2[nH]ncc2cc1Nc1ncnc2sc3c(c12)CCN(S(C)(=O)=O)C3 [Example 48, N-[6-(Methylsulfanyl)-1H-indazol-5-yl]-7-(methylsulfonyl)-5,6,7,8-tetrahydropyrido[4′,3′:4,5]thieno[2,3-d]pyrimidin-4-amine] | 27
9 | CS(=O)(=O)N1CCc2c(sc3ncnc(Nc4cc5cn[nH]c5cc4Cl)c23)C1 [Example 49, N-(6-Chloro-1H-indazol-5-yl)-7-(methylsulfonyl)-5,6,7,8-tetrahydropyrido[4′,3′:4,5]thieno[2,3-d]pyrimidin-4-amine] | 125
10 | COc1nc2[nH]ncc2cc1Nc1ncnc2sc3c(c12)CCN(S(C)(=O)=O)C3 [Example 50, N-(6-Methoxy-1H-pyrazolo[3,4-b]pyridin-5-yl)-7-(methylsulfonyl)-5,6,7,8-tetrahydropyrido[4′,3′:4,5]thieno[2,3-d]pyrimidin-4-amine] | 40
11 | O=C(N1CCOCC1)N1CCc2c(sc3ncnc(Nc4cc5cn[nH]c5cc4Cl)c23)C1 [Example 51, {4-[(6-Chloro-1H-indazol-5-yl)amino]-5,8-dihydropyrido[4′,3′:4,5]thieno[2,3-d]pyrimidin-7(6H)-yl}(morpholin-4-yl)methanone] | 57
12 | COc1nc2[nH]ncc2cc1Nc1ncnc2sc3c(c12)CCN(C(=O)N1CCOCC1)C3 [Example 52, {4-[(6-Methoxy-1H-pyrazolo[3,4-b]pyridin-5-yl)amino]-5,8-dihydropyrido[4′,3′:4,5]thieno[2,3-d]pyrimidin-7(6H)-yl}(morpholin-4-yl)methanone] | 13
13 | O=C(N1CCOCC1)N1CCc2c(sc3ncnc(Nc4cc5cn[nH]c5cc4Br)c23)C1 [Example 53, {4-[(6-Bromo-1H-indazol-5-yl)amino]-5,8-dihydropyrido[4′,3′:4,5]thieno[2,3-d]pyrimidin-7(6H)-yl}(morpholin-4-yl)methanone] | 258
14 | COc1cc2[nH]ncc2cc1Nc1ncnc2sc3c(c12)CCN(C(=O)CC(F)(F)F)C3 [Example 54, 3,3,3-Trifluoro-1-{4-[(6-methoxy-1H-indazol-5-yl)amino]-5,8-dihydropyrido[4′,3′:4,5]thieno[2,3-d]pyrimidin-7(6H)-yl}propan-1-one] | 6
15 | COc1nc2[nH]ncc2cc1Nc1ncnc2sc3c(c12)CCN(C(=O)C(C)C)C3 [Example 55, 1-{4-[(6-Methoxy-1H-pyrazolo[3,4-b]pyridin-5-yl)amino]-5,8-dihydropyrido[4′,3′:4,5]thieno[2,3-d]pyrimidin-7(6H)-yl}-2-methylpropan-1-one] | 42
16 | CC(C)C(=O)N1CCc2c(sc3ncnc(Nc4cc5cn[nH]c5cc4Cl)c23)C1 [Example 56, 1-{4-[(6-Chloro-1H-indazol-5-yl)amino]-5,8-dihydropyrido[4′,3′:4,5]thieno[2,3-d]pyrimidin-7(6H)-yl}-2-methylpropan-1-one] | 71
17 | C[C@@H]1CN(C(=O)N2CCc3c(sc4ncnc(Nc5ccn6nccc6c5)c34)C2)C[C@H](C)O1 [Example 58, [(2R,6S)-2,6-Dimethylmorpholin-4-yl][4-(pyrazolo[1,5-a]pyridin-5-ylamino)-5,8-dihydropyrido[4′,3′:4,5]thieno[2,3-d]pyrimidin-7(6H)-yl]methanone] | 61
18 | COc1nc2[nH]ncc2cc1Nc1ncnc2sc3c(c12)CCN(C(=O)OC(C)(C)C)C3 [Example 59, tert-Butyl 4-[(6-methoxy-1H-pyrazolo[3,4-b]pyridin-5-yl)amino]-5,8-dihydropyrido[4′,3′:4,5]thieno[2,3-d]pyrimidine-7(6H)-carboxylate] | 5
19 | c1nc(Nc2cc3cn[nH]c3cn2)c2c3c(sc2n1)CN(CCN1CCOCC1)CC3 [Example 60, 7-[2-(Morpholin-4-yl)ethyl]-N-(1H-pyrazolo[3,4-c]pyridin-5-yl)-5,6,7,8-tetrahydropyrido[4′,3′:4,5]thieno[2,3-d]pyrimidin-4-amine] | 98
20 | c1nc(Nc2ccc3[nH]ncc3c2)c2c3c(sc2n1)CN(CCN1CCOCC1)CC3 [Example 61, N-(1H-Indazol-5-yl)-7-[2-(morpholin-4-yl)ethyl]-5,6,7,8-tetrahydropyrido[4′,3′:4,5]thieno[2,3-d]pyrimidin-4-amine] | 25
21 | COc1cc2[nH]ncc2cc1Nc1ncnc2sc3c(c12)CCN(CCN1CCOCC1)C3 [Example 62, N-(6-Methoxy-1H-indazol-5-yl)-7-[2-(morpholin-4-yl)ethyl]-5,6,7,8-tetrahydropyrido[4′,3′:4,5]thieno[2,3-d]pyrimidin-4-amine] | 9
22 | O=c1[nH]c2ccc(Nc3ncnc4sc5c(c34)CCN(CCN3CCOCC3)C5)cc2s1 [Example 63, 6-({7-[2-(Morpholin-4-yl)ethyl]-5,6,7,8-tetrahydropyrido[4′,3′:4,5]thieno[2,3-d]pyrimidin-4-yl}amino)-1,3-benzothiazol-2(3H)-one] | 236
23 | c1nc(Nc2cnc3[nH]ncc3c2)c2c3c(sc2n1)CN(CCN1CCOCC1)CC3 [Example 64, 7-[2-(Morpholin-4-yl)ethyl]-N-(1H-pyrazolo[3,4-b]pyridin-5-yl)-5,6,7,8-tetrahydropyrido[4′,3′:4,5]thieno[2,3-d]pyrimidin-4-amine] | 119
24 | COc1nc2[nH]ncc2cc1Nc1ncnc2sc3c(c12)CCN(C(=O)N(C)C)C3 [Example 65, 4-[(6-Methoxy-1H-pyrazolo[3,4-b]pyridin-5-yl)amino]-N,N-dimethyl-5,8-dihydropyrido[4′,3′:4,5]thieno[2,3-d]pyrimidine-7(6H)-carboxamide] | 5
25 | CN1CCC(C(=O)N2CCc3c(sc4ncnc(Nc5ccc6[nH]c(=O)sc6c5)c34)C2)CC1 [Example 66, 6-({7-[(1-Methylpiperidin-4-yl)carbonyl]-5,6,7,8-tetrahydropyrido[4′,3′:4,5]thieno[2,3-d]pyrimidin-4-yl}amino)-1,3-benzothiazol-2(3H)-one] | 90
